Data published in patent publication US9890185B2, “Urea derivatives useful as kinase inhibitors” (Respivert Limited, priority 2013, dated 2018).

Experiments:
[1] = system: PBMCs; test: IL-2 release in CD3/CD28 stimulated PBMC cells (assay c); type: cell-based; conditions: Homo sapiens, read-out: IC50 Values for Inhibition of Cytokine Release, PBMCs IL-2
Summary of the method: (§1)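 Healthy-donor PBMCs, isolated by density gradient, were plated in wells pre-coated with anti-CD3 (0.3 μg/mL) and anti-CD28 (3 μg/mL) antibodies, then exposed to compound for 3 days under normal culture conditions. IL-2 and IFN gamma in supernatants were measured by sandwich ELISA; IC50 taken from the dose-response curve.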

[2] = system: PBMCs; test: IFN gamma release in CD3/CD28 stimulated PBMC cells (assay c); type: cell-based; conditions: Homo sapiens, read-out: IC50 Values for Inhibition of Cytokine Release, PBMCs IFNγ
Summary of the method: as §1

[3] = molecular target: c-Src (Homo sapiens (Human), UniProt P12931); test: c-Src enzyme inhibition (FRET, Z-LYTE); type: biochemical
Sequence of c-Src (P12931 whole entry, looked up): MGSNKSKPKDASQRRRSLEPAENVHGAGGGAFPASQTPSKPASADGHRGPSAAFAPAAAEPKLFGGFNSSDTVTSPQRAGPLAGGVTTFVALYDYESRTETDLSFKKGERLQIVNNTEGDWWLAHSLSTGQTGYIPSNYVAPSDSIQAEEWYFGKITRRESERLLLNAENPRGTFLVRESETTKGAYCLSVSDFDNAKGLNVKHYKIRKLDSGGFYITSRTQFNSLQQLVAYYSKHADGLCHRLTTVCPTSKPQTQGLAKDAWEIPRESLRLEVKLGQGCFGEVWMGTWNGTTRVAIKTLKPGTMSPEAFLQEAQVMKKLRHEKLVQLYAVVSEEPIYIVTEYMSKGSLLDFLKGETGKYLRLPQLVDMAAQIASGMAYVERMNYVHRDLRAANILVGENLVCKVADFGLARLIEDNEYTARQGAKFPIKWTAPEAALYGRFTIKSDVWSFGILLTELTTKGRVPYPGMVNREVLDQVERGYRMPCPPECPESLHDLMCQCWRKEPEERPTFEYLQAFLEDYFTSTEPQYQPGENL
Summary of the method: (§2)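 Enzyme (c-Src 3000 ng/mL, Syk 2000 ng/mL, as added solutions) was preincubated with compound for 2 hr at RT, then FRET peptide and ATP (added solution 800 μM for c-Src, 60 μM for Syk) for 1 hr. Protease development 1 hr; coumarin/fluorescein emission ratio gave % inhibition, IC50 from concentration-response.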

[4] = molecular target: Syk (Homo sapiens (Human), UniProt P43405); test: Syk enzyme inhibition (FRET, Z-LYTE); type: biochemical
Summary of the method: as §2

[5] = molecular target: p38 MAPKα isoform (MAPK14) (Homo sapiens (Human), UniProt Q16539); test: p38 MAPKα enzyme inhibition (FRET, Z-LYTE, Method 2); type: biochemical
Sequence of p38 MAPKα isoform (MAPK14) (Q16539 whole entry, canonical isoform): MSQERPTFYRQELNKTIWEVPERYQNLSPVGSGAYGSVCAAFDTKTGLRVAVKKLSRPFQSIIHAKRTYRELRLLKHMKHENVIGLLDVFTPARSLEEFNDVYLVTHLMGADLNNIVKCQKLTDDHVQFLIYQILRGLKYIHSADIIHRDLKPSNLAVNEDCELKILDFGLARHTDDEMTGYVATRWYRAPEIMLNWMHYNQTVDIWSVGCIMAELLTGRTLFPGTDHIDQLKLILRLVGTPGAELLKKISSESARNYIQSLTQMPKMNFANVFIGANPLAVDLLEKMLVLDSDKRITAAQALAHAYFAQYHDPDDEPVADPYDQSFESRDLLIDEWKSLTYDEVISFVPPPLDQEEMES
Summary of the method: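 Z-LYTE FRET: p38 MAPKα (80 ng/mL for Method 1, 200 ng/mL for Method 2, pre-dilution) preincubated 2 hr RT with compound (4–0.004 μg/mL solutions), activity read via MAPKAP-K2 phosphorylation after 1 hr RT and 1 hr protease development. Coumarin/fluorescein ratio gives phosphorylation; % inhibition versus uninhibited control, IC50 from concentration-response curve.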

[6] = system: PBMCs; test: Cell mitosis assay in PBMCs (assay g); type: cell-based; conditions: Homo sapiens, PBMC, test compound 5 μg/mL
Summary of the method: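 Human PBMCs from healthy donors, stimulated with 2% PHA for 48 hr, then exposed to test compounds for 20 hr, with demecolcine (0.1 μg/mL) added 2 hr before harvest. Cells fixed/permeabilised, stained for phospho-histone 3 and propidium iodide, and read by flow cytometry gated on lymphocytes. % mitosis inhibition vs 0.5% DMSO vehicle.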

[7] = system: PBMCs; test: LPS-induced IL-8 release in PBMC cells (assay b); type: cell-based, human; conditions: Homo sapiens, PBMC; LPS-stimulated PBMCs; read-out: IC50 Values for Inhibition of Cytokine Release, PBMCs IL-8
Summary of the method: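 Human PBMCs from healthy donors, isolated by density gradient, were pretreated with compound for 2 h and then stimulated with 1 ng/mL LPS (E. coli 0111:B4) for 24 h at 37° C, 5% CO2. Supernatant IL-8 and TNFα were measured by sandwich ELISA, and IC50 was taken from the dose-response curve.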

[8] = molecular target: GSK 3α (Homo sapiens (Human), UniProt P49840); test: GSK 3α enzyme inhibition (FRET, Z-LYTE, Method 2); type: biochemical; conditions: read-out: IC50 Values for Enzyme Inhibition, GSK3α
Sequence of GSK 3α (P49840 whole entry): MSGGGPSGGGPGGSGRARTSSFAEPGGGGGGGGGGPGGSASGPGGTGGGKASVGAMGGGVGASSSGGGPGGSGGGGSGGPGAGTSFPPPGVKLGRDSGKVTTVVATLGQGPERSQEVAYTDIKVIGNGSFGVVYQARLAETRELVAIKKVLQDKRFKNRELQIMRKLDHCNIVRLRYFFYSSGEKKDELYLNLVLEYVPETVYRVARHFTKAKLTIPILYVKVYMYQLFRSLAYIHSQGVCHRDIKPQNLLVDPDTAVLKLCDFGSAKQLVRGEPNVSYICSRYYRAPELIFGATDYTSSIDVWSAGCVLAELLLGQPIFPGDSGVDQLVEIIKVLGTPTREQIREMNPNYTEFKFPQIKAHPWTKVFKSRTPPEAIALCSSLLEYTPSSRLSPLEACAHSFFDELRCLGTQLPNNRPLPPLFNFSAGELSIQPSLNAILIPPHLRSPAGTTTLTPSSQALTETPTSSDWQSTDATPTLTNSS
Summary of the method: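 Phosphorylation of a dual-labelled synthetic peptide by human GSK3α is read as a coumarin/fluorescein ratio after protease development. Compound stocks run 4 to 0.004 μg/mL, and ATP stock is 40 μM.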

COc1cc(Nc2cc(Oc3ccc(NC(=O)Nc4cc(C(C)(C)C)cc(P(C)(C)=O)c4OC)c4ccccc34)ccn2)cc(S(=O)(=O)N(C)C)c1 [Example 58, 3-((4-((4-(3-(5-(tert-Butyl)-3-(dimethylphosphoryl)-2-methoxyphenyl)ureido)naphthalen-1-yl)oxy)pyridin-2-yl)amino)-5-methoxy-N,N-dimethylbenzenesulfonamide] showed an IC50 [1] of 587 nM, an IC50 [2] of 3.2 nM and an IC50 [3] of 101 nM. It also gave an IC50 [4] of over 1340 nM, an IC50 [5] of 527 nM and an inhibition at 5 µg/mL [6] of 2.9%. It also gave an IC50 [7] of 1.4 nM and an IC50 [8] of 7100 nM.

COCCOCCOCCNC(=O)c1cc(Nc2cc(Oc3ccc(NC(=O)Nc4cc(C(C)(C)C)cc(C(=O)NCCN5CCOCC5)c4OC)c4ccccc34)ccn2)cc(OC)c1 [Example 59, 5-(tert-Butyl)-2-methoxy-3-(3-(4-((2-((3-methoxy-5-((2-(2-(2-methoxyethoxy)ethoxy)ethyl)carbamoyl)phenyl)amino)pyridin-4-yl)oxy)naphthalen-1-yl)ureido)-N-(2-morpholinoethyl)benzamide] showed an IC50 [1] of 55.6 nM, an IC50 [2] of 2.9 nM and an IC50 [3] of 43 nM. For the same molecule, the IC50 [4] was 560 nM, the IC50 [5] was 127 nM and the inhibition at 5 µg/mL [6] was 30.9%. It also gave an IC50 [7] of 1.7 nM and an IC50 [8] of 2510 nM.

Work on COc1cc(Nc2cc(Oc3ccc(NC(=O)Nc4cc(C(C)(C)C)cc(C(=O)NCCN5CCOCC5)c4OC)c4ccccc34)ccn2)cc(C(=O)NCCN2CCOCC2)c1 [Example 60, 5-(tert-Butyl)-2-methoxy-3-(3-(4-((2-((3-methoxy-5-((2-morpholinoethyl)carbamoyl)phenyl)amino)pyridin-4-yl)oxy)naphthalen-1-yl)ureido)-N-(2-morpholinoethyl)benzamide] yielded an IC50 [1] of 101 nM, an IC50 [2] of 7 nM and an IC50 [3] of 35 nM. For the same molecule, the IC50 [4] was 206 nM, the IC50 [5] was 128 nM and the inhibition at 5 µg/mL [6] was 47.5%. It also gave an IC50 [7] of 2.4 nM and an IC50 [8] of 1700 nM.

COc1cc(Nc2cc(Oc3ccc(NC(=O)Nc4cc(C(C)(C)C)cc(C(=O)NCCN5CCOCC5)c4OC)c4ccccc34)ccn2)cc(OC)c1 [Example 62, 5-(tert-Butyl)-3-(3-(4-((2-((3,5-dimethoxyphenyl)amino)pyridin-4-yl)oxy)naphthalen-1-yl)ureido)-2-methoxy-N-(2-morpholinoethyl)benzamide] was tested, and the IC50 [1] was 24.9 nM, the IC50 [2] was 4.8 nM and the IC50 [3] was 105 nM. For the same molecule, the IC50 [4] was 145 nM, the IC50 [5] was 482 nM and the inhibition at 5 µg/mL [6] was 54.1%. For the same molecule, the IC50 [7] was 2.4 nM and the IC50 [8] was over 11400 nM.

COc1cccc(Nc2cc(Oc3ccc(NC(=O)Nc4cc(C(C)(C)C)cc(C(=O)NCCN5CCOCC5)c4OC)c4ccccc34)ccn2)c1 [Example 63, 5-(tert-Butyl)-2-methoxy-3-(3-(4-((2-((3-methoxyphenyl)amino)pyridin-4-yl)oxy)naphthalen-1-yl)ureido)-N-(2-morpholinoethyl)benzamide] was tested, and the IC50 [1] was 17.5 nM, the IC50 [2] was 7.7 nM and the IC50 [3] was 98 nM. The IC50 [4] was 154 nM, the IC50 [5] was 811 nM and the inhibition at 5 µg/mL [6] was 45.1%. For the same molecule, the IC50 [7] was 2.5 nM and the IC50 [8] was 7660 nM.

COc1cc(Nc2cc(Oc3ccc(NC(=O)Nc4cc(C(C)(C)C)cc(C(=O)NCCN5CC[S+]([O-])CC5)c4OC)c4ccccc34)ccn2)cc(OC)c1 [Example 64, 5-(tert-Butyl)-3-(3-(4-((2-((3,5-dimethoxyphenyl)amino)pyridin-4-yl)oxy)naphthalen-1-yl)ureido)-2-methoxy-N-(2-(1-oxidothiomorpholino)ethyl)benzamide] showed an IC50 [1] of 62.7 nM, an IC50 [2] of 13.3 nM and an IC50 [3] of 90 nM. For the same molecule, the IC50 [4] was 156 nM, the IC50 [5] was 945 nM and the inhibition at 5 µg/mL [6] was 32.4%. It also gave an IC50 [7] of 2.6 nM and an IC50 [8] of 9390 nM.

With COc1cc(Nc2cc(Oc3ccc(NC(=O)Nc4cc(C(C)(C)C)cc(CC(N)=O)c4OC)c4ccccc34)ccn2)cc(C(=O)NCCN2CC[S+]([O-])CC2)c1 [Example 65, 3-((4-((4-(3-(3-(2-Amino-2-oxoethyl)-5-(tert-butyl)-2-methoxyphenyl)ureido)naphthalen-1-yl)oxy)pyridin-2-yl)amino)-5-methoxy-N-(2-(1-oxidothiomorpholino)ethyl)benzamide] the IC50 [1] was 31.3 nM, the IC50 [2] was 7.6 nM and the IC50 [3] was 15 nM. It also gave an IC50 [4] of 190 nM, an IC50 [5] of 17 nM and an inhibition at 5 µg/mL [6] of 8.7%. It also gave an IC50 [7] of 4.3 nM and an IC50 [8] of 1220 nM.

For COc1cc(Nc2cc(Oc3ccc(NC(=O)Nc4cc(C(C)(C)C)cc(OC(CO)CO)c4OC)c4ccccc34)ccn2)cc(C(N)=O)c1 [Example 66, 3-((4-((4-(3-(5-(tert-Butyl)-3-((1,3-dihydroxypropan-2-yl)oxy)-2-methoxyphenyl)ureido)naphthalen-1-yl)oxy)pyridin-2-yl)amino)-5-methoxybenzamide], the IC50 [1] was 60.9 nM, the IC50 [2] was 7.7 nM and the IC50 [3] was 54 nM. It also gave an IC50 [4] of 918 nM, an IC50 [5] of 222 nM and an inhibition at 5 µg/mL [6] of 46.4%. For the same molecule, the IC50 [7] was 2.2 nM and the IC50 [8] was 4280 nM.

In the case of COc1cc(Nc2cc(Oc3ccc(NC(=O)Nc4cc(C(C)(C)C)cc(CC(N)=O)c4OC)c4ccccc34)ccn2)cc(C(=O)NCCCN2CC[S+]([O-])CC2)c1 [Example 68, 3-((4-((4-(3-(3-(2-Amino-2-oxoethyl)-5-(tert-butyl)-2-methoxyphenyl)ureido)naphthalen-1-yl)oxy)pyridin-2-yl)amino)-5-methoxy-N-(3-(1-oxidothiomorpholino)propyl)benzamide], the IC50 [1] is reported as 40.6 nM, the IC50 [2] is reported as 8 nM and the IC50 [3] is reported as 18 nM. For the same molecule, the IC50 [4] was 143 nM, the IC50 [5] was 13 nM and the inhibition at 5 µg/mL [6] was -0.6%. For the same molecule, the IC50 [7] was 3.8 nM and the IC50 [8] was 1320 nM.

COc1cc(Nc2cc(Oc3ccc(NC(=O)Nc4cc(C(C)(C)C)cc([S+](C)[O-])c4OC)c4ccccc34)ccn2)cc(C(=O)NCCN2CC[S+]([O-])CC2)c1 (stereo not drawn) [Example 69, 3-((4-((4-(3-(5-(tert-Butyl)-2-methoxy-3-(methylsulfinyl)phenyl)ureido)naphthalen-1-yl)oxy)pyridin-2-yl)amino)-5-methoxy-N-(2-(1-oxidothiomorpholino)ethyl)benzamide] gave an IC50 [1] of 75.7 nM, an IC50 [2] of 7.6 nM and an IC50 [3] of 12 nM. For the same molecule, the IC50 [4] was 124 nM, the IC50 [5] was 16 nM and the inhibition at 5 µg/mL [6] was 8.9%. The IC50 [7] was 2.3 nM and the IC50 [8] was 1960 nM.

COc1cc(Nc2cc(Oc3ccc(NC(=O)Nc4cc(C(C)(C)C)cc(CNC(C)=O)c4OC)c4ccccc34)ccn2)cc(C(=O)NCCN2CC[S+]([O-])CC2)c1 [Example 71, 3-((4-((4-(3-(3-(Acetamidomethyl)-5-(tert-butyl)-2-methoxyphenyl)ureido)naphthalen-1-yl)oxy)pyridin-2-yl)amino)-5-methoxy-N-(2-(1-oxidothiomorpholino)ethyl)benzamide] gave an IC50 [1] of 33.7 nM, an IC50 [2] of 7.2 nM and an IC50 [3] of 14 nM. For the same molecule, the IC50 [4] was 26 nM, the IC50 [5] was 25 nM and the inhibition at 5 µg/mL [6] was 48.3%. It also gave an IC50 [7] of 3.4 nM and an IC50 [8] of 1200 nM.

COc1cc(Nc2cc(Oc3ccc(NC(=O)Nc4cc(C(C)(C)C)cc(P(C)(C)=O)c4OC)c4ccccc34)ccn2)cc(S(=O)(=O)N(C)CCN2CCOCC2)c1 [Example 75, 3-((4-((4-(3-(5-(tert-Butyl)-3-(dimethylphosphoryl)-2-methoxyphenyl)ureido)naphthalen-1-yl)oxy)pyridin-2-yl)amino)-5-methoxy-N-methyl-N-(2-morpholinoethyl)benzenesulfonamide] was tested, and the IC50 [1] was 115 nM, the IC50 [2] was 3 nM and the IC50 [3] was 78 nM. The IC50 [4] was over 1100 nM, the IC50 [5] was 134 nM and the inhibition at 5 µg/mL [6] was 13.9%. The IC50 [7] was 1.6 nM and the IC50 [8] was 2320 nM.
